Measurements as given in ChEMBL document CHEMBL1133057, “Synthesis and in vitro antibacterial activity of 3-[N-methyl-N-(3-methyl-1,3-thiazolium-2-yl)aminolmethyl cephalosporin derivatives” (2000).
Converted amounts (≈) assume the structure as drawn.

Legend:
Streptococcus pyogenes [1] = assay: Compound was tested in vitro for its minimum inhibitory concentration by serial 2-fold agar dilution Muller Hinton method against Streptococcus pyogenes A 308; type: functional
Streptococcus pyogenes [2] = assay: Compound was tested in vitro for its minimum inhibitory concentration by serial 2-fold agar dilution Muller Hinton method against Streptococcus pyogenes 8b; type: functional
Staphylococcus aureus [3] = assay: Compound was tested in vitro for its minimum inhibitory concentration by serial 2-fold agar dilution Muller Hinton method against Staphylococcus aureus 503; type: functional
Pseudomonas aeruginosa [4] = assay: Compound was tested in vitro for its minimum inhibitory concentration by serial 2-fold agar dilution Muller Hinton method against Pseudomonas aeruginosa 1771; type: functional
Enterobacter cloacae [5] = assay: Compound was tested in vitro for its minimum inhibitory concentration by serial 2-fold agar dilution Muller Hinton method against Enterobacter cloacae 1321; type: functional
Pseudomonas aeruginosa [6] = assay: Compound was tested in vitro for its minimum inhibitory concentration by serial 2-fold agar dilution Muller Hinton method against Pseudomonas aeruginosa 1592 E; type: functional
Pseudomonas aeruginosa [7] = assay: Compound was tested in vitro for its minimum inhibitory concentration by serial 2-fold agar dilution Muller Hinton method against Pseudomonas aeruginosa 1771 M; type: functional
Escherichia coli [8] = assay: Compound was tested in vitro for its minimum inhibitory concentration by serial 2-fold agar dilution Muller Hinton method against Escherichia coli TEM; type: functional
Enterobacter cloacae [9] = assay: Compound was tested in vitro for its minimum inhibitory concentration by serial 2-fold agar dilution Muller Hinton method against Enterobacter cloacae P99; type: functional
Klebsiella oxytoca = assay: Compound was tested in vitro for its minimum inhibitory concentration by serial 2-fold agar dilution Muller Hinton method against Klebsiella oxytoca 1082 E; type: functional
Staphylococcus aureus [10] = assay: Compound was tested in vitro for its minimum inhibitory concentration by serial 2-fold agar dilution Muller Hinton method against Staphylococcus aureus SG511; type: functional
Pseudomonas aeruginosa [11] = assay: Compound was tested in vitro for its minimum inhibitory concentration by serial 2-fold agar dilution Muller Hinton method against Pseudomonas aeruginosa 9027; type: functional
Escherichia coli [12] = assay: Compound was tested in vitro for its minimum inhibitory concentration by serial 2-fold agar dilution Muller Hinton method against Escherichia coli DC 0; type: functional
Salmonella typhimurium = assay: Compound was tested in vitro for its minimum inhibitory concentration by serial 2-fold agar dilution Muller Hinton method against Salmonella Typhimurium; type: functional, Salmonella enterica subsp. enterica serovar Typhimurium; details: Salmonella enterica
Klebsiella aerogenes = assay: Compound was tested in vitro for its minimum inhibitory concentration by serial 2-fold agar dilution Muller Hinton method against Klebsiella aerogenes 1522 E; type: functional
Staphylococcus aureus [13] = assay: Compound was tested in vitro for its minimum inhibitory concentration by serial 2-fold agar dilution Muller Hinton method against Staphylococcus aureus 285; type: functional
Escherichia coli [14] = assay: Compound was tested in vitro for its minimum inhibitory concentration by serial 2-fold agar dilution Muller Hinton method against Escherichia coli O 55; type: functional
Streptococcus pyogenes [15] = assay: Compound was tested in vitro for its minimum inhibitory concentration by serial 2-fold agar dilution Muller Hinton method against Streptococcus pyogenes A77; type: functional
Escherichia coli [16] = assay: Compound was tested in vitro for its minimum inhibitory concentration by serial 2-fold agar dilution Muller Hinton method against Escherichia coli 1507E; type: functional
Escherichia coli [17] = assay: Compound was tested in vitro for its minimum inhibitory concentration by serial 2-fold agar dilution Muller Hinton method against Escherichia coli DC 2; type: functional

Row | Compound | MIC (Streptococcus pyogenes [1]) [µg/mL] | MIC (Streptococcus pyogenes [2]) [µg/mL] | MIC (Staphylococcus aureus [3]) [µg/mL] | MIC (Pseudomonas aeruginosa [4]) [µg/mL] | MIC (Enterobacter cloacae [5]) [µg/mL] | MIC (Pseudomonas aeruginosa [6]) [µg/mL] | MIC (Pseudomonas aeruginosa [7]) [µg/mL] | MIC (Escherichia coli [8]) [µg/mL] | MIC (Enterobacter cloacae [9]) [µg/mL] | MIC (Klebsiella oxytoca) [µg/mL] | MIC (Staphylococcus aureus [10]) [µg/mL] | MIC (Pseudomonas aeruginosa [11]) [µg/mL] | MIC (Escherichia coli [12]) [µg/mL] | MIC (Salmonella typhimurium) [µg/mL] | MIC (Klebsiella aerogenes) [µg/mL] | MIC (Staphylococcus aureus [13]) [µg/mL] | MIC (Escherichia coli [14]) [µg/mL] | MIC (Streptococcus pyogenes [15]) [µg/mL] | MIC (Escherichia coli [16]) [µg/mL] | MIC (Escherichia coli [17]) [µg/mL]
1 | C=CCO/N=C(\C(=O)NC1C(=O)N2C(C(=O)[O-])=C(CN(C)c3sc(C(=O)OCC)c(C)[n+]3C)CSC12)c1csc(N)n1 (stereo not given) | 0.013 (≈ 0.0204 µM) | 50 (≈ 78.6 µM) | 0.391 (≈ 0.615 µM) | 3.12 (≈ 4.92 µM) | 0.025 (≈ 0.0393 µM) | 12.5 (≈ 19.7 µM) | 0.391 (≈ 0.615 µM) | 0.098 (≈ 0.154 µM) | 25 (≈ 39.3 µM) | 6.25 (≈ 9.83 µM) | 0.781 (≈ 1.23 µM) | 25 (≈ 39.3 µM) | 0.098 (≈ 0.154 µM) | 0.049 (≈ 0.0771 µM) | 0.049 (≈ 0.0771 µM) | 1.56 (≈ 2.46 µM) | 0.025 (≈ 0.0393 µM) | 0.013 (≈ 0.0204 µM) | 0.098 (≈ 0.154 µM) | 0.025 (≈ 0.0393 µM)
2 | CCO/N=C(\C(=O)NC1C(=O)N2C(C(=O)[O-])=C(CN(C)c3sc4c([n+]3C)CCCC4)CSC12)c1csc(N)n1 (stereo not given) | 0.013 (≈ 0.022 µM) | 25 (≈ 42.2 µM) | 0.195 (≈ 0.33 µM) | 6.25 (≈ 10.6 µM) | 0.049 (≈ 0.0828 µM) | 25 (≈ 42.2 µM) | 0.391 (≈ 0.661 µM) | 0.195 (≈ 0.33 µM) | 6.25 (≈ 10.6 µM) | 3.12 (≈ 5.28 µM) | 0.391 (≈ 0.661 µM) | 25 (≈ 42.2 µM) | 0.098 (≈ 0.166 µM) | 0.098 (≈ 0.166 µM) | 0.098 (≈ 0.166 µM) | 0.781 (≈ 1.32 µM) | 0.049 (≈ 0.0828 µM) | 0.007 (≈ 0.0118 µM) | 0.195 (≈ 0.33 µM) | 0.025 (≈ 0.0422 µM)
3 | C=CCO/N=C(\C(=O)NC1C(=O)N2C(C(=O)[O-])=C(CN(C)c3scc(C)[n+]3C)CSC12)c1csc(N)n1 (stereo not given) | 0.013 (≈ 0.0231 µM) | 25 (≈ 44.4 µM) | 0.195 (≈ 0.346 µM) | 6.25 (≈ 11.1 µM) | 0.098 (≈ 0.174 µM) | 12.5 (≈ 22.2 µM) | 0.195 (≈ 0.346 µM) | 0.195 (≈ 0.346 µM) | 25 (≈ 44.4 µM) | 12.5 (≈ 22.2 µM) | 0.391 (≈ 0.694 µM) | 25 (≈ 44.4 µM) | 0.195 (≈ 0.346 µM) | 0.098 (≈ 0.174 µM) | 0.098 (≈ 0.174 µM) | 0.781 (≈ 1.39 µM) | 0.049 (≈ 0.0869 µM) | 0.007 (≈ 0.0124 µM) | 0.195 (≈ 0.346 µM) | 0.025 (≈ 0.0444 µM)
4 | CO/N=C(\C(=O)N[C@@H]1C(=O)N2C(C(=O)O)=C(COC(C)=O)CS[C@H]12)c1csc(N)n1 [CEFOTAXIME] | 0.007 (≈ 0.0154 µM) | 100 (≈ 220 µM) | 0.781 (≈ 1.71 µM) | 3.12 (≈ 6.86 µM) | 0.007 (≈ 0.0154 µM) | 12.5 (≈ 27.4 µM) | 0.098 (≈ 0.215 µM) | 0.025 (≈ 0.0549 µM) | 100 (≈ 220 µM) | 1.56 (≈ 3.43 µM) | 1.56 (≈ 3.43 µM) | 25 (≈ 54.9 µM) | 0.025 (≈ 0.0549 µM) | 0.025 (≈ 0.0549 µM) | 0.025 (≈ 0.0549 µM) | 3.12 (≈ 6.86 µM) | 0.007 (≈ 0.0154 µM) | 0.002 (≈ 0.00439 µM) | 0.025 (≈ 0.0549 µM) | 0.013 (≈ 0.0285 µM)
5 | CO/N=C(\C(=O)N[C@@H]1C(=O)N2C(C(=O)[O-])=C(C[n+]3cccc4c3CCC4)CS[C@H]12)c1csc(N)n1 [CEFPIROME] | 0.007 (≈ 0.0136 µM) | 1.56 (≈ 3.04 µM) | 0.098 (≈ 0.19 µM) | 0.781 (≈ 1.52 µM) | 0.013 (≈ 0.0253 µM) | 1.56 (≈ 3.04 µM) | 0.391 (≈ 0.76 µM) | 0.049 (≈ 0.0952 µM) | 3.12 (≈ 6.07 µM) | 1.56 (≈ 3.04 µM) | 0.391 (≈ 0.76 µM) | 3.12 (≈ 6.07 µM) | 0.013 (≈ 0.0253 µM) | 0.025 (≈ 0.0486 µM) | 0.025 (≈ 0.0486 µM) | 0.781 (≈ 1.52 µM) | 0.025 (≈ 0.0486 µM) | 0.007 (≈ 0.0136 µM) | 0.025 (≈ 0.0486 µM) | 0.049 (≈ 0.0952 µM)

Continued, values first:

Row | MIC (Streptococcus pyogenes [1]) [µg/mL] | MIC (Streptococcus pyogenes [2]) [µg/mL] | MIC (Staphylococcus aureus [3]) [µg/mL] | MIC (Pseudomonas aeruginosa [4]) [µg/mL] | MIC (Enterobacter cloacae [5]) [µg/mL] | MIC (Pseudomonas aeruginosa [6]) [µg/mL] | MIC (Pseudomonas aeruginosa [7]) [µg/mL] | MIC (Escherichia coli [8]) [µg/mL] | MIC (Enterobacter cloacae [9]) [µg/mL] | MIC (Klebsiella oxytoca) [µg/mL] | MIC (Staphylococcus aureus [10]) [µg/mL] | MIC (Pseudomonas aeruginosa [11]) [µg/mL] | MIC (Escherichia coli [12]) [µg/mL] | MIC (Salmonella typhimurium) [µg/mL] | MIC (Klebsiella aerogenes) [µg/mL] | MIC (Staphylococcus aureus [13]) [µg/mL] | MIC (Escherichia coli [14]) [µg/mL] | MIC (Streptococcus pyogenes [15]) [µg/mL] | MIC (Escherichia coli [16]) [µg/mL] | MIC (Escherichia coli [17]) [µg/mL] | Compound
6 | 0.013 (≈ 0.0242 µM) | > 100 | 0.781 (≈ 1.45 µM) | 12.5 (≈ 23.2 µM) | 0.013 (≈ 0.0242 µM) | 25 (≈ 46.5 µM) | 1.56 (≈ 2.91 µM) | 0.049 (≈ 0.0911 µM) | 25 (≈ 46.5 µM) | 6.25 (≈ 11.6 µM) | 0.781 (≈ 1.45 µM) | 25 (≈ 46.5 µM) | 0.049 (≈ 0.0911 µM) | 0.049 (≈ 0.0911 µM) | 0.049 (≈ 0.0911 µM) | 1.56 (≈ 2.91 µM) | 0.025 (≈ 0.0465 µM) | 0.004 (≈ 0.00744 µM) | 0.049 (≈ 0.0911 µM) | 0.049 (≈ 0.0911 µM) | CO/N=C(\C(=O)NC1C(=O)N2C(C(=O)[O-])=C(CN(C)c3scc(C)[n+]3C)CSC12)c1csc(N)n1 (stereo not given)
7 | 0.013 (≈ 0.0236 µM) | > 100 | 0.781 (≈ 1.42 µM) | 25 (≈ 45.3 µM) | 0.013 (≈ 0.0236 µM) | 50 (≈ 90.6 µM) | 1.56 (≈ 2.83 µM) | 0.049 (≈ 0.0888 µM) | 12.5 (≈ 22.7 µM) | 6.25 (≈ 11.3 µM) | 1.56 (≈ 2.83 µM) | 50 (≈ 90.6 µM) | 0.049 (≈ 0.0888 µM) | 0.098 (≈ 0.178 µM) | 0.098 (≈ 0.178 µM) | 1.56 (≈ 2.83 µM) | 0.025 (≈ 0.0453 µM) | 0.007 (≈ 0.0127 µM) | 0.049 (≈ 0.0888 µM) | 0.098 (≈ 0.178 µM) | CO/N=C(\C(=O)NC1C(=O)N2C(C(=O)[O-])=C(CN(C)c3sc(C)c(C)[n+]3C)CSC12)c1csc(N)n1 (stereo not given)
